Earlier results on 2 compounds are cited in PMC7004556 (Cancer Science, 2020).

The subject of one series is FGFR pathway. The conditions noted are these: cited from earlier work.
The test system of the next series is advanced gastric cancer. Conditions: advanced gastric cancer with FGFR2 polysomy or gene amplification; cited from earlier work.
The subject of another series is advanced solid tumors. The conditions noted are these: Japanese patients with advanced solid tumors, duration ≥4 weeks; cited from earlier work.
The test system of another series is patients. The conditions noted are these: phase I study, only at the highest dose investigated (12 mg); cited from earlier work.

On to AZD4547, for which the Serum phosphate result in the series with FGFR pathway is recorded as “increase”. Also, in the series on advanced gastric cancer, the “Effect on progression‐free survival compared with paclitaxel” value is recorded as “no significant effect”. Besides, the Best response result in the series on advanced solid tumors is on record as “stable disease”.

`COc1cc(OC)cc(N(CCNC(C)C)c2ccc3ncc(-c4cnn(C)c4)nc3c2)c1` [JNJ‐42756493]: the “Phosphate and 1,25‐(OH)2‐vitamin D” value in the series on FGFR pathway (studies in solid tumors) was “increased”. For the same compound, the DLT observed entry in the series with patients was “detachment of retinal pigment epithelium <grade 3 was the only DLT observed”.
